Several values for one entry are separate records, joined by “and”; a condition that tells them apart may be missing. Equal values may be shown once.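 Grown in 96-well plates, cells were treated for 48 hours with each compound at five concentrations. Insufficient inhibition: endpoint recorded as highest concentration tested. The concentration for 50% growth inhibition is given as GI50. The concentration for full growth arrest is given as TGI.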 Where a SMILES comes first, the peptide text is derived from it. [ ]: non-standard residue; d: D form. Ac5c = NC1(C(=O)O)CCCC1
Tests used:
Assay in all cases: DTP human tumour cell line panel, 48 h
[1] = tested on: SK-MEL-28 melanoma
[2] = tested on: DU-145 prostate
[3] = tested on: SK-MEL-5 melanoma
[4] = tested on: MDA-MB-231 breast
[5] = tested on: SW-620 colon
[6] = tested on: NCI-H522 lung
[7] = tested on: HT29 colon
[8] = tested on: CCRF-CEM leukemia
[9] = tested on: NCI-H226 lung
[10] = tested on: OVCAR-8 ovarian

Row | Compound | GI50 [1] | TGI [1] | GI50 [2] | TGI [2] | GI50 [3] | TGI [3] | GI50 [4] | TGI [4] | GI50 [5] | TGI [5] | GI50 [6] | TGI [6] | GI50 [7] | TGI [7] | GI50 [8] | TGI [8] | GI50 [9] | TGI [9] | GI50 [10] | TGI [10]
1 | Cc1ccccc1NC(=O)N/C(N)=N/c1nc(-c2cccc([N+](=O)[O-])c2)cs1 | 2.55 µM | > 100 µM | 3.35 µM | 65.1 µM | 1880 nM | 5.15 µM | 1.6 µM | 4.03 µM | 2300 nM | > 100 µM | 1790 nM | > 100 µM | 2780 nM | 64 µM | 3 µM | > 100 µM | 2.17 µM | 7.02 µM | 2.88 µM | 15.2 µM
2 | NC1(C(=O)NC2(C(=O)O)CCCC2)CCCC1 (H-[Ac5c]-[Ac5c]-OH) | – | > 100 µM | – | > 100 µM | – | > 100 µM | – | > 100 µM | – | > 100 µM | – | > 100 µM | – | > 100 µM | – | > 100 µM | – | > 100 µM | – | > 100 µM
3 | COc1cc(/C=C/C(=O)CC(=O)/C=C/c2cc(OC)c(OC)c(OC)c2)cc(OC)c1OC | 4.24 µM | 32.8 µM | 6.71 µM | 31.9 µM | 4510 nM | 46 µM | 3.13 µM | 9.12 µM | 2560 nM | 11.3 µM | 1900 nM | 3.78 µM | 3660 nM | 13.6 µM | 2.58 µM | > 100 µM | 10.2 µM | > 100 µM | 3.04 µM | 13.8 µM
4 | COc1cc(OC)cc(C2CC(=O)Nc3c2c(C)nn3-c2nc3ccccc3[nH]2)c1 (centres undefined) | 3.64 µM | 70 µM | 3.73 µM | 17.1 µM | 1970 nM | 4.27 µM | 3.66 µM | > 100 µM | 3310 nM | 12.9 µM | 2080 nM | 5.58 µM | 2750 nM | 7.43 µM | 0.792 µM | > 100 µM | 2.52 µM | 6.38 µM | 3.97 µM | > 100 µM
5 | CC(=O)Nc1ccc(C(=O)NN2C(=O)C(Cl)C2c2ccc(Cl)cc2)cc1 (centres undefined) | – | > 100 µM | – | > 100 µM | – | > 100 µM | – | 70.3 µM | – | > 100 µM | – | > 100 µM | – | > 100 µM | – | > 100 µM | – | > 92.1 µM | – | > 100 µM
6 | COc1cc(OC)c(/C=C/S(=O)(=O)Cc2cnc(OC)c(N)c2)c(OC)c1 | 20.4 µM | > 100 µM | < 0.0202 µM | > 100 µM | < 14 nM | 0.721 µM | < 0.0276 µM | > 100 µM | < 18.8 nM | > 100 µM | < 10 nM | – | < 18.5 nM | – | < 0.0204 µM | > 100 µM | > 40.1 µM | > 100 µM | < 0.024 µM | > 100 µM
7 | O=S(=O)(NC1=NCCN1C(=S)SN1CCn2c1nsc2=S)c1ccc(Br)cc1 | 72.5 µM | > 100 µM | 28.9 µM | > 100 µM | 19500 nM | 47.9 µM | 28.8 µM | > 100 µM | 24200 nM | 73 µM | 15000 nM | 36.8 µM | 42500 nM | > 100 µM | 20.9 µM | 71.8 µM | 40.2 µM | > 100 µM | 25.8 µM | 68.8 µM
8 | CC(=O)[O-].CC(=O)[O-].[Pt+2].c1cscn1.c1cscn1 | > 100 µM | > 100 µM | 22.9 µM | > 100 µM | > 100000 nM | > 100 µM | > 100 µM | > 100 µM | 47500 nM | > 100 µM | 20800 nM | 42.2 µM | > 100000 nM | > 100 µM | 54 µM | > 100 µM | > 100 µM | > 100 µM | 31.3 µM | 71.7 µM
9 | C=CCC(N[C@H](CO)c1ccccc1)c1ccc2ccccc2n1 (some centres undefined) | > 100 µM | > 100 µM | > 100 µM | > 100 µM | – | – | > 100 µM | > 100 µM | > 100000 nM | > 100 µM | > 100000 nM | > 100 µM | > 100000 nM | > 100 µM | > 100 µM | > 100 µM | > 100 µM | > 100 µM | > 100 µM | > 100 µM
10 | CC(=O)CC(=O)Nc1ccc2ccccc2c1 | – | > 100 µM | – | > 100 µM | – | > 100 µM | – | > 100 µM | – | > 100 µM | – | > 100 µM | – | > 100 µM | – | > 100 µM | – | > 100 µM | – | > 100 µM
11 | O=C1c2ccccc2C(=O)N1CCCSc1ccccc1 | – | > 100 µM | – | > 100 µM | – | > 100 µM | – | > 100 µM | – | > 100 µM | – | > 100 µM | – | > 100 µM | – | > 100 µM | – | > 100 µM | – | > 100 µM
12 | CC(=O)N[C@H]1C=C[C@@H]2/C=C(C)/C=C/[C@@H](C)[C@H]([C@H](C)[C@H](O)[C@@H](C)NC(C)=O)OC(=O)/C=C/C=C(C)\C=C\[C@]2(C)C1 | 0.0306 µM and 0.00647 µM | 4.65 µM and > 45 µM | 0.0294 µM and 0.00897 µM | 4.65 µM and > 45 µM | 8.96 nM and 4.5 nM | 0.0458 µM and 0.00824 µM | 0.00333 µM and < 0.0045 µM | 0.0235 µM and < 0.0045 µM | 17.8 nM and 4.5 nM | 4.65 µM and > 45 µM | 36.8 nM and 9.31 nM | 4.65 µM and 8.99 µM | 3.84 nM and 4.5 nM | 4.65 µM and > 45 µM | 6.32 µM | > 45 µM | 0.0157 µM and 0.0045 µM | 4.65 µM and 7.18 µM | – | 4.65 µM and > 45 µM
13 | Cn1ccnc1CC(C)(O)c1ccccc1 (centres undefined) | – | > 100 µM | – | > 100 µM | – | > 100 µM | – | > 100 µM | – | > 100 µM | – | > 100 µM | – | > 100 µM | – | – | – | > 100 µM | – | > 100 µM
14 | COc1ccc([N+](=O)[O-])c2c(NCCCN(C)C)c3ccccc3nc12 | – | 13.4 µM | – | 1.79 µM | – | 0.243 µM | – | 2.31 µM | – | – | – | 0.145 µM | – | 1.22 µM | – | > 100 µM | – | 0.862 µM | – | 4.9 µM
15 | O=C(/C=C/c1ccc(F)cc1)c1ccc(Cl)cc1Cl | – | – | 53.4 µM | > 100 µM | 50800 nM | > 100 µM | > 100 µM | > 100 µM | 29700 nM | 79.2 µM | 47700 nM | > 100 µM | – | – | 22.1 µM | 52.8 µM | > 100 µM | > 100 µM | 33.7 µM | > 100 µM

Reference: PubChem BioAssay (NCI)
